Assay results published in the NIST ThermoML archive (doi:10.1021/je060271a).

Details: 283.16 K, Liquid, Vibrating tube method

CCCC(=O)OCC(COC(=O)CCC)(COC(=O)CCC)COC(=O)CCC [pentaerythritol tetrabutyrate]
Details | mass density [kg/m3]
6243.9 kPa | 1062.8
6250.7 kPa | 1062.7
6257.4 kPa | 1062.7
6265.2 kPa | 1062.8
6271.9 kPa | 1062.7
6278.8 kPa | 1062.7
6300.1 kPa | 1062.8
6308.2 kPa | 1062.8
6314.8 kPa | 1062.8
6321.7 kPa | 1062.7
6328.1 kPa | 1062.7
6336.4 kPa | 1062.8
6343.5 kPa | 1062.8
6350.2 kPa | 1062.8
6357.3 kPa | 1062.8
6365.3 kPa | 1062.7
6372 kPa | 1062.8
6379.3 kPa | 1062.6
6387.5 kPa | 1062.7
6394.3 kPa | 1062.7
6401.4 kPa | 1062.9
6408.5 kPa | 1062.8
6416.8 kPa | 1062.8
6423.7 kPa | 1062.9
6432.1 kPa | 1062.8
6439.2 kPa | 1062.8
6446.1 kPa | 1062.8
6453.2 kPa | 1062.8
6460.5 kPa | 1062.8
6469.1 kPa | 1062.8
6476 kPa | 1062.8
6483.3 kPa | 1062.8
6491.8 kPa | 1062.9
6498.7 kPa | 1062.8
6505.9 kPa | 1062.9
6513.4 kPa | 1062.8
6522.2 kPa | 1062.9
6529.1 kPa | 1062.9
6536.5 kPa | 1062.8
6543.9 kPa | 1062.9
6552.9 kPa | 1062.9
6560.5 kPa | 1062.9
6567.3 kPa | 1062.9
6575.9 kPa | 1062.8
6583.2 kPa | 1062.9
6590.8 kPa | 1062.9
6598.2 kPa | 1062.9
6606.8 kPa | 1062.9
6614.3 kPa | 1062.9
6621.5 kPa | 1062.9
6630.5 kPa | 1062.9
6638.3 kPa | 1062.9
6645.9 kPa | 1062.8
6653.6 kPa | 1062.9
6662.1 kPa | 1063
6669.8 kPa | 1062.9
6678.8 kPa | 1063
6685.9 kPa | 1063
6693.8 kPa | 1063
6701.4 kPa | 1063.1
6710.6 kPa | 1063
6718.2 kPa | 1062.9
6725.8 kPa | 1063
6735.1 kPa | 1062.8
6742.9 kPa | 1063.1
6750.9 kPa | 1063
6759.3 kPa | 1062.9
6766.9 kPa | 1062.9
6774.9 kPa | 1063
6784.2 kPa | 1063
6799.4 kPa | 1063
6808.2 kPa | 1063.1
6815.3 kPa | 1063
6822.2 kPa | 1063
6830 kPa | 1063.1
6835.8 kPa | 1063.1
6840.7 kPa | 1063.1
6845.5 kPa | 1063
6861.6 kPa | 1063
6890.3 kPa | 1063
6919.1 kPa | 1063
6948.8 kPa | 1063
6983.9 kPa | 1063.1
7013.2 kPa | 1063.2
7043.3 kPa | 1063.1
7073.9 kPa | 1063.2
7111.3 kPa | 1063.2
7141.9 kPa | 1063.2
7172.4 kPa | 1063.1
7231.8 kPa | 1063.2
7286.9 kPa | 1063.4
7348.1 kPa | 1063.3
7377.4 kPa | 1063.2
7488.6 kPa | 1063.5
7519.7 kPa | 1063.4
7758.9 kPa | 1063.6
7783.9 kPa | 1063.7
7814.3 kPa | 1063.5
7838.8 kPa | 1063.7
7861.2 kPa | 1063.7
7886.6 kPa | 1063.7
7908.5 kPa | 1063.6
7930.2 kPa | 1063.7
7952.2 kPa | 1063.7
7978.4 kPa | 1063.7
8000.3 kPa | 1063.7
8022.4 kPa | 1063.7
8048.9 kPa | 1063.8
8071.7 kPa | 1063.7
8094.5 kPa | 1063.8
8121.4 kPa | 1063.8
8144.2 kPa | 1063.9
8166.8 kPa | 1063.7
8194.2 kPa | 1063.8
8217.7 kPa | 1063.9
8241.7 kPa | 1063.9
8269.4 kPa | 1063.8
8316.5 kPa | 1063.8
8340.2 kPa | 1063.9
8369.1 kPa | 1063.9
8393.5 kPa | 1063.9
8418.1 kPa | 1063.9
8448 kPa | 1063.9
8472.3 kPa | 1064
8501.9 kPa | 1064.2
8527.3 kPa | 1064
8553.2 kPa | 1064.1
8580.4 kPa | 1064
8605.5 kPa | 1064
8631.2 kPa | 1064.1
8662.6 kPa | 1064
8688.3 kPa | 1064
8719.9 kPa | 1064.1
8746.3 kPa | 1064.2
8772.8 kPa | 1064.2
8799 kPa | 1064.1
8831.6 kPa | 1064.1
8858.5 kPa | 1064.2
8886.1 kPa | 1064.3
8920.4 kPa | 1064.2
8949 kPa | 1064.2
8976.4 kPa | 1064.3
9004.9 kPa | 1064.3
9038.9 kPa | 1064.3
9067 kPa | 1064.4
9095.4 kPa | 1064.4
9129.5 kPa | 1064.3
9159 kPa | 1064.5
9187.9 kPa | 1064.3
9222.8 kPa | 1064.4
9252.1 kPa | 1064.4
9282.2 kPa | 1064.4
9318.6 kPa | 1064.4
9349.3 kPa | 1064.5
9379.8 kPa | 1064.5
9411 kPa | 1064.4
9447.8 kPa | 1064.7
9478.5 kPa | 1064.7
9515.9 kPa | 1064.6
9547.2 kPa | 1064.6
9578.8 kPa | 1064.6
9616.9 kPa | 1064.6
9649.2 kPa | 1064.6
9681.5 kPa | 1064.6
9714.5 kPa | 1064.6
9755.2 kPa | 1064.8
9788.8 kPa | 1064.7
9830.3 kPa | 1064.6
9864.7 kPa | 1064.7
9896.4 kPa | 1064.8
9925.9 kPa | 1064.9
9960.2 kPa | 1064.8
9989.6 kPa | 1064.9
10025 kPa | 1064.8
10056 kPa | 1064.9
10087 kPa | 1064.9
10121 kPa | 1065
10145 kPa | 1065.1
10167 kPa | 1064.9
10189 kPa | 1064.9
10215 kPa | 1064.9
10238 kPa | 1065
10260 kPa | 1065.1
10278 kPa | 1064.9
10293 kPa | 1065.1
10311 kPa | 1065
10327 kPa | 1065
10342 kPa | 1065
10358 kPa | 1065
10377 kPa | 1065.1
10392 kPa | 1065.1
10408 kPa | 1065.2
10427 kPa | 1065
10443 kPa | 1065.1
10459 kPa | 1065.2
10478 kPa | 1065.1
10494 kPa | 1065.2
10510 kPa | 1065.3
10526 kPa | 1065.2
10545 kPa | 1065.3
10561 kPa | 1065.2
10578 kPa | 1065.2
10597 kPa | 1065.2
10613 kPa | 1065.3
10630 kPa | 1065.3
10646 kPa | 1065.2
10666 kPa | 1065.2
10682 kPa | 1065.2
10699 kPa | 1065.3
10719 kPa | 1065.4
10735 kPa | 1065.3
10755 kPa | 1065.2
10773 kPa | 1065.3
10789 kPa | 1065.4
10806 kPa | 1065.3
10827 kPa | 1065.4
10845 kPa | 1065.2
10863 kPa | 1065.3
10879 kPa | 1065.4
10900 kPa | 1065.5
10917 kPa | 1065.4
10934 kPa | 1065.4
10955 kPa | 1065.4
10972 kPa | 1065.4
10990 kPa | 1065.3
11010 kPa | 1065.4
11028 kPa | 1065.5
11046 kPa | 1065.4
11067 kPa | 1065.5
11086 kPa | 1065.4
11104 kPa | 1065.4
11122 kPa | 1065.5
11144 kPa | 1065.5
11162 kPa | 1065.7
11180 kPa | 1065.5
11202 kPa | 1065.6
11220 kPa | 1065.5
11238 kPa | 1065.6
11257 kPa | 1065.4
11279 kPa | 1065.6
11298 kPa | 1065.7
11316 kPa | 1065.6
11339 kPa | 1065.7
11479 kPa | 1065.6
11499 kPa | 1065.8
11522 kPa | 1065.7
11541 kPa | 1065.8
11561 kPa | 1065.7
11584 kPa | 1065.8
11604 kPa | 1065.8
11624 kPa | 1065.8
11643 kPa | 1065.8
11970 kPa | 1065.9
12038 kPa | 1066.1
12063 kPa | 1066.2
12084 kPa | 1066.1
12106 kPa | 1066.2
12132 kPa | 1066
12154 kPa | 1066.1
12175 kPa | 1066.1
12198 kPa | 1066.1
12224 kPa | 1066.2
12246 kPa | 1066.2
12268 kPa | 1066.1
12294 kPa | 1066.2
12316 kPa | 1066.3
12338 kPa | 1066.3
12365 kPa | 1066.3
12388 kPa | 1066.2
12410 kPa | 1066.3
12437 kPa | 1066.3
12460 kPa | 1066.2
12483 kPa | 1066.3
12510 kPa | 1066.3
12533 kPa | 1066.3
12556 kPa | 1066.3
12584 kPa | 1066.4
12607 kPa | 1066.4
12630 kPa | 1066.3
12659 kPa | 1066.4
12682 kPa | 1066.4
12705 kPa | 1066.3
12734 kPa | 1066.3
12758 kPa | 1066.4
12784 kPa | 1066.6
12809 kPa | 1066.5
12838 kPa | 1066.5
12862 kPa | 1066.4
12886 kPa | 1066.5
12911 kPa | 1066.6
12940 kPa | 1066.6
12965 kPa | 1066.6
12994 kPa | 1066.6
